Data on 22 molecules can be found in PubChem BioAssay AID2305 (GlaxoSmithKline (GSK), 2010).

The test concerns P. falciparum 3D7 growth, pLDH absorbance. Kind of test: P. falciparum 3D7 growth inhibition, dose response, strain 3D7 (AID 2305).

As usually defined, the IC50 is the midpoint of a concentration-inhibition curve. The molecule `O=C(Cn1c(SCc2cccc(F)c2F)cc(=O)c2ccccc21)N(CCN1CCCCC1)Cc1ccc(-c2ccc(C(F)(F)F)cc2)cc1` had an IC50 of 660 nM.

Take `CC(C)NCc1ccc(-c2ccc(NS(=O)(=O)c3cccc4cccnc34)cc2)cc1`: the IC50 worked out at 810 nM.

For the molecule `O=C(NCCCCN1CCN(CC=Cc2ccccc2)CC1)c1ccc(NC(=O)c2cc(Cl)cc(Cl)c2)cc1`, the IC50 is 210 nM.

`Cc1nc2nc(N)nc(N)c2c(C)c1Cc1ccc(Cl)cc1` registered an IC50 of 220 nM.

Regarding `Cc1cc(N2Cc3ccccc3C2)nc(Nc2ccc(S(=O)(=O)N3CCOCC3)cc2)n1`, the IC50 was 1110 nM.

As to `O=C(Nc1cccc(CN2CCCN(Cc3ccccc3)CC2)c1)c1ccc(Cl)c(Cl)c1`, the IC50 was 900 nM.

`CC(C)CNCc1cccc(-c2cccc(CNCCCN3CCN(C)CC3)c2)c1`: the IC50 was 1180 nM.

Consider `CCn1cc(-c2nc(-c3cc(OC)cc(OC)c3)no2)c(=O)c2ccccc21`, for which the IC50 came to 340 nM.

`CC(C)c1ccc(N(CC(=O)N/N=C/c2ccc(C(F)(F)F)cc2)S(=O)(=O)c2ccc(C(F)(F)F)cc2)cc1` showed an IC50 of 850 nM.

`O=S1(=O)NCc2ccc(Nc3nccc(Nc4ccc5c(cnn5Cc5ccccc5)c4)n3)cc21` yielded an IC50 of 750 nM.

Molecule `Cc1ccc(F)cc1S(=O)(=O)Nc1cccc(CCN2CCC(N3CCCCC3)CC2)c1` displayed an IC50 of 1120 nM.

As for `COc1ccc2[nH]cc(C3C[C@H]4CC[C@@H](C3)N4CCC3CCN(C(=O)/C=C/c4ccc(Cl)c(Cl)c4)CC3)c2c1` (some centres not stated), the concentration for half-maximal inhibition (IC50) was 620 nM.

The molecule `c1cc(C2=N[C@H]3CCCC[C@@H]3N2)ccc1OCCCOc1ccc(C2=N[C@@H]3CCCC[C@H]3N2)cc1` returned an IC50 of 730 nM.

`O=C(/C=C/c1ccc(Cl)c(Cl)c1)N1CCC(CN2CCC(c3c[nH]c4cc(C(F)(F)F)ccc34)CC2)CC1` showed a half-maximal inhibitory concentration (IC50) of 800 nM.

Turning to `CCOC(=O)C1CCN(CCOc2cc(NC(=O)/C=C/c3ccccc3Cl)ccc2Br)CC1`, the IC50 was determined as 990 nM.

`c1ccc(CN2CCc3cc4nccc(N5CCNCC5)c4cc32)cc1` yielded an IC50 of 400 nM.

The molecule `COc1cccc(CNc2noc(-c3c(-c4ccccc4)noc3C)n2)c1OC` had an IC50 of 870 nM.

Turning to `CN1CCN(CCCN(Cc2ccc(-c3cccc(CNCc4ccc5c(c4)OCO5)c3)cc2)C(=O)NCCc2ccccc2)CC1`, the IC50 came to 840 nM.

`CCCC(N)C(=O)NC1CCN(c2c(F)c(N)c3c(=O)c(C(=O)O)cn4c3c2Oc2ccccc2-4)C1` (configuration not stated) gave an IC50 of 360 nM.

On to `COc1c(OC)c(OC)c2ccccc2c1CCNCCCCNCCc1c(OC)c(OC)c(OC)c2ccccc12`, for which the IC50 amounted to 610 nM.

Molecule `Cc1cc(Cl)ccc1OC(C)C(=O)N1CCc2ccccc21` (configuration not stated) showed an IC50 of 670 nM.

In the case of `Nc1nc(N)c2c(Cc3ccc(Br)cc3)cccc2n1`, the IC50 amounted to 770 nM.
